“Also recorded” adds a separate entry of the source.
Assays:
Assay type in all cases: cell-based
[1] = system: NF-κB target genes (BIRC3, TNFAIP3, IL-8); assay: qRT-PCR of NF-κB target gene expression in cancer cells
Method: RNA was isolated using an RNeasy kit (Qiagen, Valencia, Calif.). cDNA was generated using the Taqman reverse transcription kit (Applied Biosystems, Foster City, Calif.). qRT-PCR was performed using Sybr Select or Power Sybr green master mix (Applied Biosystems). Samples were plated in triplicate and run on a 7300 or 7500 real time PCR machine (Applied Biosystems), using the indicated primers (Table 2). Target gene expression was normalized to actin, HPRT, or GAPDH. Data are expressed as mean fold change+/−SEM and are representative of at least two independent biological replicates.

NF-κB [2] = assay: Dual luciferase reporter assay, OVCAR8 cells transfected with NF-κB dependent reporter; conditions: 24 hours
Source text: (§1) Cells were transfected with firefly luciferase plasmids for STAT3 (m67-Luc) or NF-KB-Luc (Stratagene, Santa Clara, Calif.) and a Renilla luciferase plasmid (Promega, Madison, Wis.). The NF-κB-responsive cell line was generated with an NF-κB-responsive reporter plasmid (catalogue no. 219078; Strategene, La Jolla, Calif., incorporated herein by reference). Cells were also co-transfected with a plasmid expressing Renilla luciferase under a constitutive promoter for normalization (pRL-TK plasmid; Promega; Madison, Wis., incorporated herein by reference). Dual luciferase assays were performed as described (Walker et al., 2007 Oncogene, 26: 224-233, incorporated herein by reference).

p65 [3] = assay: Single cell nuclear translocation analysis, HeLa p65-EGFP cells; conditions: 1 uM, imaged 18 hours
Method: Hela cells stably expressing EGFP-tagged p65 were imaged for one hour prior to addition of either 1 uM Jak inhibitor 1 or 100 ng/mL TNF, and then for an additional 18 hours. Transmitted light and widefield epifluorescent images were captured at 10 min intervals using a BD Pathway 855 Bioimager with a 20× objective (0.75 NA; Olympus). Imaging was performed in an environmental chamber set to 37θC and 5% CO2. Five fields of view were analyzed per condition and the nuclear translocation of p65-EGFP was manually scored for each cell.

NF-κB [4] = assay: NF-κB-dependent luciferase reporter assay in NF-κB-Luc cells (Prestwick library screen and confirmation); conditions: drug 1 hour, then TNF stimulation
Source text: as §1
(§2) To identify NF-κB inhibitors, the Prestwick Chemical Library, which contains 1120 bioactive compounds, was screened for activity against cells expressing NF-κB-dependent luciferase (Nelson et al., 2008 Blood, 112(13):5095-102). To confirm the specificity of identified compounds, NF-κB-Luc and STAT3-Luc cells were treated with the indicated doses of drug for one hour followed by stimulation with TNF or IL-6 respectively for 6 hours. Luciferase activity was assessed using the Bright-Glo Luciferase Assay system (Promega).

STAT3 = assay: STAT3-dependent luciferase reporter counterscreen in STAT3-Luc cells; conditions: drug one hour, then IL-6 for 6 hours
Method: as §2

multiple myeloma cells = assay: Quantitation of viable cell number (Cell-TiterGlo), multiple myeloma cells
Method: (§3) Cells were treated with the indicated drugs in 96 well plates for 48 to 72 hours. Viable cell number was assessed using ATP-dependent bioluminescence (Cell-TiterGlo; Promega). Data are expressed as average+/−SD of at least two replicates, and are representative of at least two separate experiments.

[5] = system: p65 and p50 NF-κB subunits; assay: Cellular fractionation and immunoblot of NF-κB subunits upon TNF stimulation, OVCAR8 cells; conditions: 24 hours, then TNF
Method: (§4) Immunoblots were performed as described (Nelson et al., 2008 Blood, 112: 5095-5102). Nuclear and cytoplasmic fractions were isolated using the Nuclear Extract Kit (Active Motif North America, Carlsbad, Calif.). Antibodies were used recognizing phospho-tyrosine STAT3 (9131), PARP (9542), p65 (8242), RelB (4922) (Cell Signaling; Beverly, Mass.); actin (A-5316) and tubulin (T-5168) (Sigma); and STAT3 (sc-482), p50 (sc-7178), and calnexin (sc-11397) (Santa Cruz Biotechnology; Santa Cruz, Calif.).

p65 [6] = assay: Chromatin immunoprecipitation at NF-κB binding sites of target genes, OVCAR8 cells; conditions: harmine pretreatment, TNF 30 minutes
Method: SKBR3 cells stimulated with IL-6 for 30 minutes, OVCAR8 cells treated with harmine for 16 hours and then stimulated with TNF for 30 minutes, or U266 cells treated with Jak inhibitor 1 for 3 hours were analyzed by ChIP. Cross-linking was performed with 1% formaldehyde (0.37% for U266 cells) for 10 min at room temperature, followed by quenching of formaldehyde using 0.125 M glycine. ChIP was performed essentially as described (Nelson et al., 2004 J Biol Chem, 279(52):54724-30). Chromatin was sheared by sonication using a Qsonica Q700 sonicator with a microtip at approximately 75% amplitude. Anti-STAT3 antibody as described above, anti-p65 (Santa Cruz Biotechnology, sc-109), or anti-RNA polymerase II (Santa Cruz Biotechnology, sc-9001) were used. ChIP product was analyzed by qPCR using the following primers: RELB ([…] (SEQ ID NO: 34) and […] (SEQ ID NO: 35)), IL8 ([…] (SEQ ID NO: 36) and […] (SEQ ID NO: 37)), BIRC3 ([…] (SEQ ID NO: 38) and […] (SEQ ID NO: 39)), TNFAIP3 ([…] (SEQ ID NO: 40) and […] (SEQ ID NO: 41)). Data were normalized relative to input and a nonbinding region of the rhodopsin (RHO) gene (Walker et al., 2013 Mol Cell Biol, 33(15):2879-90).

INA6 cells = assay: Apoptosis by PARP cleavage immunoblot, INA6 cells; conditions: 24 hours
Method: as §4

U266 and OVCAR8 cells = assay: Quantitation of viable cell number, U266 and OVCAR8 cells, harmine with additional STAT3 inhibitors; conditions: U266, 15 μM harmine, 3 μM TG101348; OVCAR8, 15 μM harmine, 5 μM pimozide; 72 hours
Method: as §3

[7] = OVCAR8 cells, 24 hours, qRT-PCR

SMILES: CCN1/C(=C/C(C)=O)Sc2ccc(O)cc21 [INDY]
- NF-κB target gene expression [1, 7]: did not inhibit

SMILES: CC(C)(C)c1nc2c3cc[nH]c(=O)c3c3cc(F)ccc3c2[nH]1 [Jak inhibitor 1]
- NF-κB target gene expression (IL-8) ([1]; A498 renal carcinoma cells, 24 hours): enhanced
- NF-κB target gene expression ([1]; INA-6 MM cells, 22-24 hours): enhanced
- NF-κB target gene expression ([1]; MDA-MB-468 breast cancer cells, 1 μM, 28 hours): enhanced
- NF-κB target gene expression [1, 7]: enhanced
- NF-κB reporter luciferase activity (NF-κB [2]): enhanced
- p65 nuclear translocation (p65 [3]): not significantly altered

SMILES: COc1ccc2c(c1)[nH]c1c(C)nccc12 [harmine]
- NF-κB-dependent luciferase activity (transcriptional activity of NF-κB) (NF-κB [4]): identified as an NF-κB inhibitor
- NF-κB-dependent luciferase activity (transcriptional activity of NF-κB) (NF-κB [4]; listed as Harmine): inhibitor of NF-κB-dependent luciferase; also recorded: inhibited
- STAT3-dependent luciferase activity (STAT3): little effect; also recorded: not inhibiting
- cell killing in combination with Jak inhibitor 1 (relative viable cell number) (multiple myeloma cells; INA6, 5 μM harmine, 0.25 μM Jak inhibitor 1, 72 hours): synergistic cell killing
- viability of multiple myeloma cells (relative viable cell number) (multiple myeloma cells; cells containing activated NF-κB (INA6, U266, MA/11.S), 72 hours): inhibited the viability
- induction of NF-κB target genes induced by Jak inhibitor 1 ([1]; OVCAR8 cells, 24 hours, harmine together with Jak inhibitor 1): completely suppressed
- NF-κB target gene expression [1, 7]: reduced; also recorded: inhibited
- nuclear accumulation of p65 and p50 [5]: no effect
- RNA polymerase II binding at NF-κB target genes (ChIP) (p65 [6]): reduced
- p65 binding at NF-κB binding sites of target genes (ChIP) (p65 [6]): reduced
- apoptosis measured by PARP cleavage, combination with Jak inhibitor 1 (INA6 cells): enhanced apoptosis
- cell killing in combination with additional STAT3 inhibitors (relative viable cell number) (U266 and OVCAR8 cells): enhanced killing

SMILES: O=C(N/N=C/c1ccc([N+](=O)[O-])o1)c1ccc(O)cc1 [nifuroxazide]
- NF-κB target gene expression ([1]; INA-6 MM cells, 22-24 hours): upregulation
- NF-κB target gene expression [1, 7]: upregulation

— patent US20210393597A1, “TARGETING THE TRANSCRIPTION FACTOR NF-KB WITH HARMINE” (DANA-FARBER CANCER INSTITUTE, INC., priority 2018, published 2021)
